Data taken from patent US8367682B2, “Pyrimidine derivatives and their use as pesticides” (Novartis AG, priority 2006, dated 2013).

Legend:
[1] = test system: Rhipicephalus sanguineus nymphs; test: In-vivo test against Rhipicephalus sanguineus nymphs on Mongolian gerbils; conditions: for % reduction of number of ticks: spray (or spot-on) on gerbils, vs placebo group, Abbot's formula
Protocol: 4. In-Vivo Test Against Rhipicephalus sanquineus Nymphs on Mongolian Gerbils (Meriones unguiculatus)
On day 0, gerbils are treated with the test compound at a given dose by spray (or spot-on) application. On day +1 (+2), the animals are infested with nymphs of R. sanguineus. Ticks are left on the animals until full repletion. Seven days after infestation nymphs dropped off fully engorged are collected and counted. They are kept until molting to also evaluate growth regulating activity of the test compound. Efficacy in killing (and growth regulating) is expressed as a tick number (and molted tick number) reduction in comparison with a placebo treated group, using the Abbot's formula. A tick number reduction of more than 60%, in particular more than 70%, is regarded as a minimum prerequisite for a commercial development of a compound. In addition, said killing efficacy should be put into practice with the minimal dose for safety and environmental reasons.

[2] = test system: Rhipicephalus sanguineus; test: Activity in vitro against Rhipicephalus sanguineus (dog ticks), HTS; conditions: in this test; adult ticks; concentration not given
Protocol: 2. Activity in Vitro Against Rhipicephalus sanguineus (Dog Ticks)—HTS
A clean adult tick population is used to seed a suitably formatted 96-well plate containing the test substances to be evaluated for antiparasitic activity. Each compound is tested by serial dilution in order to determine its MED. Ticks are left in contact with the test compound for 10 minutes and are then incubated at 28° C. and 80% relative humidity (RH) for 7 days, during which the test compound's effect is monitored. Acaricidal activity is confirmed if and when adult ticks are dead.

[3] = test system: Ctenocephalides felis; test: Activity in vitro against Ctenocephalides felis (cat flea), HTS, artificial blood feeding; conditions: in this test; adult fleas; concentration not given
Protocol: 3. Activity in Vitro Against Ctenocephalides felis (Cat Flea)—HTS
A mixed adult population of fleas is placed in a suitably formatted 96-well plate allowing fleas to access and feed on treated blood via an artificial feeding system. Each compound is tested by serial dilution in order to determine its MED. Fleas are fed on treated blood for 24 hours, after which the compound's effect is recorded. Insecticidal activity is determined on the basis of the number of dead fleas recovered from the feeding system.

| Compound | % reduction of number of ticks ([1]; dose 10 mg/kg) [%] | % reduction of number of ticks ([1]; dose 3.2 mg/kg) [%] | also measured |
| --- | --- | --- | --- |
| CC(O)c1cccc(-c2nc(Oc3ccc(F)c(C(F)(F)F)c3)c(N)c(Oc3ccc(F)c(C(F)(F)F)c3)n2)c1 (stereo not shown) [Compound 1.18] | 85 |  |  |
| COc1cccc(-c2nc(Oc3ccc(F)c(C(F)(F)F)c3)c(N)c(Oc3ccc(F)c(C(F)(F)F)c3)n2)c1 [Compound 1.7] |  | 91 |  |
| COCc1cccc(-c2nc(Oc3ccc(F)c(C(F)(F)F)c3)c(N)c(Oc3ccc(F)c(C(F)(F)F)c3)n2)c1 [Compound 1.27] |  | 78 |  |
| Nc1c(Oc2ccc(F)c(C(F)(F)F)c2)nc(-c2ccc3cc[nH]c3c2)nc1Oc1ccc(F)c(C(F)(F)F)c1 [Compound 2.3] |  | 81 |  |
| CC(C)c1cccc(-c2nc(Oc3ccc(F)c(C(F)(F)F)c3)c(N)c(Oc3ccc(F)c(C(F)(F)F)c3)n2)c1 [Compound 1.10] | 81 |  |  |
| Cn1ccc2ccc(-c3nc(Oc4ccc(F)c(C(F)(F)F)c4)c(N)c(Oc4ccc(F)c(C(F)(F)F)c4)n3)cc21 [Compound 2.2] |  | 89 |  |
| Nc1c(Oc2ccc(F)c(C(F)(F)F)c2)nc(-c2cccc(N3CCOCC3)c2)nc1Oc1ccc(F)c(C(F)(F)F)c1 [Compound 1.30] |  | 79 |  |
| Cc1cccc(-c2nc(Oc3ccc(F)c(C(F)(F)F)c3)c(N)c(Oc3ccc(F)c(C(F)(F)F)c3)n2)c1 [Compound 1.9] | 74 |  |  |
| Cc1cc(-c2nc(Oc3ccc(F)c(C(F)(F)F)c3)c(N)c(Oc3ccc(F)c(C(F)(F)F)c3)n2)ccc1F [Compound 1.23] | 99 |  |  |
| CN(C)c1cccc(-c2nc(Oc3ccc(F)c(C(F)(F)F)c3)c(N)c(Oc3ccc(F)c(C(F)(F)F)c3)n2)c1 [Compound 1.34, 2-(3-Dimethylamino-phenyl)-4,6-bis-(4-fluoro-3-trifluoromethyl-phenoxy)-pyrimidin-5-ylamine] |  | 85 |  |
| Nc1c(Oc2ccc(F)c(C(F)(F)F)c2)nc(-c2ccccc2)nc1Oc1ccc(F)c(C(F)(F)F)c1 [2-phenyl-4,6-bis-(4-fluoro-3-[trifluoromethyl]phenoxy)-5-amino-pyrimidine] |  |  | acaricidal efficacy [2]: does not show any significant acaricidal efficacy; insecticidal efficacy [3]: does not show any significant insecticidal efficacy; killing efficacy ([1]; at these low concentrations (doses of the table, 3.2-10 mg/kg)): No significant killing efficacy |
